# Test system: Mycobacterium tuberculosis
# Test: Antimycobacterial activity against Mycobacterium tuberculosis H37Rv harboring qcrB deletion mutant assessed as inhibition of bacterial growth incubated for 7 days by resazurin microplate assay
# Assay type: functional
# Conditions: time 7 day
row,SMILES,MIC [µM]
1,O=C(Cn1cnc2ccccc2c1=O)Nc1ccccc1,>32
2,O=C(Cn1cnc2ccccc2c1=O)Nc1ccc(OC(F)(F)F)cc1,>32
3,O=C(Cn1cnc2ccccc2c1=O)Nc1ccc(F)cc1,>32
4,O=C(COc1ncnc2ccccc12)Nc1ccc(F)cc1,>32
5,O=C(COc1ncnc2ccccc12)Nc1ccc(C(F)(F)F)cc1,>32
6,CSc1ccc(NC(=O)Cn2cnc3ccccc3c2=O)cc1,>32
7,O=C(COc1ncnc2ccccc12)NCc1ccccc1,>32
8,O=C(Cn1cnc2ccccc2c1=O)Nc1ccc(Cl)cc1,>32
9,O=C(COc1ncnc2ccccc12)NCc1ccc(N2CCN(c3ccc(F)cc3)CC2)cc1,>32
10,Cc1ccc(NC(=O)Cn2cnc3ccccc3c2=O)cc1,>32
11,O=C(COc1ncnc2ccccc12)NCc1ccc(N2CCN(Cc3ccccc3)CC2)cc1,>32
12,O=C(COc1ncnc2ccccc12)Nc1ccccc1,8
13,COc1ccc(NC(=O)COc2ncnc3ccccc23)cc1,>32
14,O=C(Cn1cnc2ccccc2c1=O)Nc1ccc(C(F)(F)F)cc1,>32
15,Cc1ccccc1NC(=O)COc1ncnc2ccccc12,>32
16,O=C(COc1ncnc2ccccc12)Nc1ccc(Br)cc1,>32
17,COc1ccc(N2CCN(c3ccc(CNC(=O)COc4ncnc5ccccc45)cc3)CC2)cc1,>32
18,COc1ccc(NC(=O)Cn2cnc3ccccc3c2=O)cc1,>32
19,O=C(COc1ncnc2ccccc12)Nc1ccc(Cl)cc1,16
20,Cc1ccc(NC(=O)COc2ncnc3ccccc23)cc1,>32
21,O=C(COc1ncnc2ccccc12)NCc1ccc(N2CCN(c3ccccc3)CC2)cc1,>32
22,COc1ccccc1NC(=O)Cn1cnc2ccccc2c1=O,>32
23,O=C(Cn1cnc2ccccc2c1=O)Nc1ccc(Br)cc1,>32
24,O=C(Cn1cnc2ccccc2c1=O)NC1=C(C(F)(F)F)CCC=C1,>32
25,O=C(COc1ncnc2ccccc12)Nc1cccc2ccccc12,>32
26,COc1ccccc1NC(=O)COc1ncnc2ccccc12,>32
27,O=C(Cn1cnc2ccccc2c1=O)Nc1ccc([N+](=O)[O-])cc1,>32
28,O=C(COc1ncnc2ccccc12)Nc1ccc(OC(F)(F)F)cc1,>32
29,O=C(COc1ncnc2ccccc12)NCc1ccc(N2CCC(c3ccccc3)CC2)cc1,>32
